Experiment [1] deals with EDB in U-87 MG glioblastoma xenograft tumor sections. Nature of the experiment: Immunofluorescence staining of U-87 MG tumor tissue sections. On the set-up: species or system human U-87 MG grown as mouse xenograft. Conditions: biotinylated miniprotein tetramerized with Cy3-labeled streptavidin, 6 µm sections. How it is done:
Cryopreserved tumor pieces were cut in 6-µm-thick sections, fixed in ice cold acetone for 5 min, and air-dried. Slides were then blocked in PBS with 3% BSA at RT for 5 min. For staining of EDB, 1 µg of the respective biotinylated cystine-knot miniprotein was incubated with 2.9 µg streptavidin-Cy3 conjugate (Rockland Immunochemicals) at RT for 30 min. The pre-formed complex or 0.1 µg AF680-(MC-FN-010)3 and anti-mouse CD31 antibody (RB-10333-P1, Thermo Fisher) diluted 1:100 in PBS with 1% BSA was then added to the tumor sections and incubated for 30 min at 37 °C. Afterwards, slides were washed three times with PBS containing 1% BSA. CD31 staining of sections treated with pre-formed complex was performed with a rat anti-mouse CD31 IgG antibody (102416; BioLegend) diluted 1:100 in PBS with 1% BSA for 30 min at 37 °C and detected with a secondary […] IgG-Cy3 antibody (111-165-003; Jackson ImmunoResearch) diluted 1:400 in PBS with 1% BSA for 30 min at 37 °C. After three washing steps in PBS, cell nuclei were stained with Höchst 33342 (Thermo Fisher Scientific) diluted 1:5000 in PBS for 30 min at RT. Slides were washed again as described above and covered with coverslips in a thin layer of mounting medium (Dako). Images were captured with a Zeiss Apotome microscope (Carl Zeiss) and analyzed with ZEN software (Carl Zeiss).

For another experiment, the system named is FN-B. Nature of the experiment: Hit identification ranking score (FN-B to BSA ELISA signal normalized to expression rate). Format: binding, human. The note with it: signal (FN-B) to noise (BSA) ELISA ratio normalized to expression rate of Trx-cystine-knot miniprotein; MCopt 1.0 library.
Experiment [2] concerns the target T1, biotinylated human FN-67B89 (Homo sapiens, UniProt P02751).
T1 construct: flanked by its surrounding type III domains (FN-67B89, amino acid G1080-E1455); made in house; host or cells: E. coli BL21 (DE3), pET-21a
Nature of the experiment: Surface plasmon resonance, binding kinetics to FN-67B89. The note with it: for binding of tag-free variant to FN-67B89 by SPR: Fig 2d, multi-cycle kinetics, 50 to 1000 nM. How it is done: Binding kinetics of monomeric and trimeric cystine-knot miniprotein ligands to its target protein was determined using a Biacore T-100 device (GE Healthcare Life Science) with PBS-T as running buffer. For this, the biotinylated FN-67B89 protein (200–300 µg/mL) was captured by binding to a flow cell of an SA sensor chip (GE Healthcare Life Science). To analyze monomeric ligands, an immobilized target density of maximum 750 response units (RU) was applied and for trimeric variants a RU of maximum 400 was aimed for. Binding analysis of monomeric ligands was performed using a multi-cycle kinetic method with concentrations ranging from 50 to 4000 nM. A cycle started with an association period of 90 s, followed by a dissociation period of 420 s and a final regeneration step. Kinetic measurement was conducted applying a flow rate of 20 µL/min. Trimeric variants were analyzed under the same association and dissociation conditions, but using the single-cycle kinetic measurement mode in a constant flow of […]. In this case the analyte concentration was between 1.25 and 10 nM. Binding kinetics and steady-state analysis were calculated using a global kinetic fit model (1:1 Langmuir, Biacore T-100 Evaluation Software; GE Healthcare Life Science).
On the technique in general: In SPR one partner is held on a chip, and binding of the other changes the refractive index at the surface.

Experiment [3] relates to FN-6789 (type III domains 6–9 without EDB). The experiment in a line: ELISA binding of Trx-cystine-knot miniproteins to off-target control FN-6789. Also noted: species or system human. The note with it: FN-6789, streptavidin, milk powder, BSA. (In general: ELISA stands for enzyme-linked immunosorbent assay.)
Setting [4] is: SPR Biacore T-100, biotinylated human FN-67B89 on streptavidin chip, PBS-T, 1:1 Langmuir fit.

Where no end group is shown, it is not given here. The star is where a group is joined. Biotin = O=C1N[C@H]2[C@H](CS[C@H]2CCCCC(=O)*)N1

T1 sequence (P02751 1080-1546): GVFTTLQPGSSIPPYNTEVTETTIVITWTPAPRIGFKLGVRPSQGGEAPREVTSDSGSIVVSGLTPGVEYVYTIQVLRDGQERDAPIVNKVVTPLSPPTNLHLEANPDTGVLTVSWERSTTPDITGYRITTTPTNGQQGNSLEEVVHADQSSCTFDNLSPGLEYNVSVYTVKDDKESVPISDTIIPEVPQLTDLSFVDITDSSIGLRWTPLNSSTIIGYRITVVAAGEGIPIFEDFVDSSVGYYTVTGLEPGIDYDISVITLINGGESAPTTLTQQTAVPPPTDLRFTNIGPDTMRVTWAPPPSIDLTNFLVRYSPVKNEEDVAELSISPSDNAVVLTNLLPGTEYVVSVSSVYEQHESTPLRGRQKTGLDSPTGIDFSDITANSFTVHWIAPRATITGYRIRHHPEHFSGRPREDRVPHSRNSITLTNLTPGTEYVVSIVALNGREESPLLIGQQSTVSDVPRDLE
Description for FN-B: Single colonies were picked, sequenced, and transferred to a 96-well plate for small-scale expression in 1 mL autoinduction medium (MagicMedia™; Thermo Fisher Scientific). Protein production was conducted overnight at 30 °C and 220 rpm. Cells were harvested by centrifugation at 3000 × g for 15 min, lysed via incubation in buffer (20 mM Tris, 2 mM MgCl2, 20 mM NaCl, pH 8) containing 0.1 mg/mL lysozyme (Merck Millipore) and 5 U/mL benzonase (Merck Millipore) combined with a freeze–thaw cycle, and heated for 10 min at 80 °C. After a final centrifugation (3000 × g, 15 min, 4 °C) to remove cell debris, the supernatant was collected for E-PAGE™ and binding analysis. E-PAGE^TM (Life Technologies) was used as a high throughput gel system to simultaneously analyze 96-probes in parallel for a quantification of produced and heat-purified proteins. E-PAGE^TM analysis was performed according to the manufacturer's instructions. ELISA was used as a technique to analyze protein–protein interactions. […] The wells were washed three times with PBS-T (1× PBS with 0.1% (w/v) Tween-20), blocked with 1× Casein buffer (Sigma Aldrich) diluted in PBS for 2 h at RT, and washed again as described. 20 µL of supernatant containing the respective heat-purified fusion protein were added to 80 µL PBS-T or 200 nM of MC-Myc-010 fusion protein (wells with anti-c-myc antibody) diluted in PBS-T, applied to the cavities, and incubated for 1 h at 4 °C. After three times of washing with PBS-T, binding of the respective variant was detected with a horseradish peroxidase (HRP)-conjugated anti-S-tag antibody (ab18589 or ab19324; Abcam) 1:2000 diluted in PBS. Enzymatic reaction was measured with TMB as a chromogenic substrate and stopped with 0.2 M HCl after approximately 5 min. The measurement of absorbance at 450 nm was performed using an Infinite M200 PRO Microplate Reader (Tecan). […]
Ranking scores were calculated on the basis of the signal (FN -B) to noise (BSA)
ratios determined via ELISA and were further normalized to the expression rate of Trx -cystine-knot […]

Consider “MC-FN-0115-bio: biotinylated MC-FN-0115, tetramerized with Cy3-labeled streptavidin for staining (Biotin-PMCTQRANRIAACRRDSDCTGACICRGNGYCG; also: cystine-knot disulfides, pairing not given here)”, for which the “staining of U-87 MG tumor sections” value in experiment [1] is reported as “did not stain”.

One may read the Kd as the equilibrium constant for the complex coming apart. Lower therefore signals a tighter complex. For the substance “PMCTQRKNRIRLCRRDSDCTGACICRGNGYCG (also: bicyclic or more (positions not given here)) [MC-FN-010]”, the Ranking value in the experiment with FN-B lay in the range of 2.6 to 0.6. Further, the “binding of tag-free variant to FN-67B89 by SPR” value in experiment [2] was “detectable binding activity”. Also, the “affinity / binding constant towards biotinylated FN-67B89 (range in words)” value in experiment [2] (SPR) is listed as “single-digit micromolar range”. Further, in experiment [2] (setting [4]), binding was put at a Kd of 1580 nM and the Koff was 0.07831 s⁻¹. This substance came in with a Kon in experiment [2] (SPR Biacore T-100, biotinylated human FN-67B89 on streptavidin chip, PBS-T, 1:1 Langmuir fit, monomers multi-cycle, trimers single-cycle) of 49500 M⁻¹ s⁻¹.

As to “WKCQPTNGYRIRCRRDSDCPGDCICRGNGYCG (also: bicyclic or more (positions not given here)) [MC-FN-030, cystine-knot miniprotein clone from MCopt 1.0 library]”, the Ranking value in the experiment with FN-B is recorded as 2.7 to 1.6. For the same substance, the “binding of tag-free variant to FN-67B89 by SPR” value in experiment [2] was “no detectable binding”.

Take “WTCTKKYPNTISCRRDSDCRVTCICRGNGYCG (also: bicyclic or more (positions not given here)) [MC-FN-020, cystine-knot miniprotein clone from MCopt 1.0 library, without R-I/V-R-(L) motif]”: the Ranking value in the experiment on FN-B lay in the range of 3.7 to 1.7. In experiment [3], the “binding to off-target and control proteins” value is reported as “strong binding”.

The values above are taken from publication PMC6962393, “Targeting the tumor vasculature with engineered cystine-knot miniproteins” (Nature Communications, 2020).
